Source: patent US12129509B2, “Apparatus, systems, and methods for determining the susceptibility of infectious agents to anti-infectives” (priority 2018, dated 2024)
Converted amounts (≈) assume the structure as drawn.

Columns and labels:
[1] = test system: E. coli of an unknown strain; test: pH and ORP growth curves of E. coli with Ciprofloxacin in diagnostic device 102 (FIGS. 7A and 7B); assay type: cell-based
Text: FIGS. 7A and 7B illustrate pH growth curves and ORP growth curves of E. coli in the presence of various concentrations of the antibiotic Ciprofloxacin, respectively. The growth curves were generated using a computing device 158 coupled to a parameter analyzer 156 coupled to the diagnostic device 102. Similar types of growth curves can also be generated using the computing device 158 coupled to the parameter analyzer 156 coupled to the diagnostic device 202.
An inoculum solution 110 comprising E. coli of an unknown strain (e.g., a positive blood culture (PBC) diluted to 5×10^5 colony-forming units (CFU)/mL of E. coli in Mueller Hinton (MH) broth) was introduced to the sample receiving space 112 of the diagnostic device 102. The inoculum solution 110 was allowed to fill the plurality wells 120 of the diagnostic device 102 including the growth control wells 134 and a number of active electrode wells 136. A water immiscible liquid 152 was then introduced into the sample receiving space 112 to seal the wells 120 and the entire diagnostic device 102 was incubated at an elevated temperature.
The computing device 158 generated the growth curves based on changes in the solution characteristics (e.g., changes in pH of the pH electrode wells 126 and changes in ORP of the ORP electrode wells 128) of the inoculum solution 110 within the growth control wells 134 and the various active electrode wells 136. The growth control wells 134 comprised at least one pH electrode well 126 and at least one ORP electrode well 128 devoid of the antibiotic. The active electrode wells 136 comprised dried Ciprofloxacin at concentrations of 2 μg/mL, 4 μg/mL, 8 μg/mL, 16 μg/mL, and 32 μg/mL.
This curve pattern or shape can be attributed to cellular activity undertaken by the active E. coli within the growth control wells 134. FIGS. 7A and 7B also illustrate that the three growth curves generated from measurements of the inoculum solution 110 within the active electrode wells 136 comprising 2 μg/mL and 4 μg/mL of Ciprofloxacin mimicked and followed the growth pattern of the inoculum solution 110 within the growth control wells 134.

[2] = test system: E. coli of an unknown strain; test: pH growth curves of E. coli with Levofloxacin in diagnostic device 102 (FIG. 6); assay type: cell-based; settings: Escherichia coli, E. coli diluted in Mueller Hinton broth, wells with 1, 2 and 4 μg/mL, read-out: minimum inhibitory concentration (MIC)
Text: FIG. 6 illustrates pH growth curves of E. coli in the presence of various concentrations of the antibiotic Levofloxacin. The growth curves were generated using a computing device 158 coupled to a parameter analyzer 156 coupled to the diagnostic device 102. Similar types of growth curves can also be generated using the computing device 158 coupled to the parameter analyzer 156 coupled to the diagnostic device 202. An inoculum solution 110 comprising E. coli of an unknown strain (diluted in Mueller Hinton (MH) broth) was introduced to the sample receiving space 112 of the diagnostic device 102. The inoculum solution 110 was allowed to fill the plurality wells 120 of the diagnostic device 102 including the growth control wells 134 and a number of active electrode wells 136. A water immiscible liquid 152 was then introduced into the sample receiving space 112 to seal the wells 120 and the entire diagnostic device 102 was incubated at an elevated temperature. The computing device 158 generated the growth curves based on a change in the pH of the inoculum solution 110 within a growth control well 134 and three active electrode wells 136. The growth control well 134 comprised a pH electrode 130 within the well and was devoid of the antibiotic. […]

SMILES | susceptibility of the strain at the concentration ([1]; Ciprofloxacin 2 μg/mL and 4 μg/mL, curves followed growth control) | susceptibility of the strain at the concentration ([1]; Ciprofloxacin 8 μg/mL, delayed change in pH and ORP) | growth of E. coli in active electrode wells ([1]; Ciprofloxacin 16 μg/mL and 32 μg/mL, curves substantially flat lines) | susceptibility of the strain (overall) ([1]; based on MIC from pH and ORP growth curves) | MIC [2] [µg/mL]
O=C(O)c1cn(C2CC2)c2cc(N3CCNCC3)c(F)cc2c1=O [Ciprofloxacin] | resistant or not susceptible | intermediate susceptibility | no noticeable growth | generally resistant | –
C[C@H]1COc2c(N3CCN(C)CC3)c(F)cc3c(=O)c(C(=O)O)cn1c23 [Levofloxacin] | – | – | – | – | 1 (≈ 2.77 µM)
